Measured values published in US10301624B2, “Targeting human satellite II (HSATII)” (The General Hospital Corporation, priority 2014, dated 2019).

Experiments:
Assay type in all cases: cell-based, human
[1] = test system: HCT8; test: Cell growth in 3D and 2D culture, HCT8 (with or without shRNA TP53 knockdown)
Procedure: (§1) FIGS. 15A-D. Effect of Locked Nucleic Acids targeting HSATII on TP53 wild type Colorectal Cancer cell lines. […] Error bars represent standard deviation. P-value was calculated using student's two tailed t-test.
FIGS. 18A-F. TP53 knockdown sensitizes HCT8 cells to HSATII targeted Locked Nucleic Acids and Reverse Transcriptase inhibition. HCT8 colorectal cancer cells are resistant to the reverse transcriptase inhibitor ddC under 3D (A) and 2D (D) growth conditions. shRNA mediated knockdown of TP53 sensitizes the cells to reverse transcriptase inhibition under 3D (B-C), but not 2D (E-F) growth conditions. TP53 knockdown sensitizes HCT8 cells to HSATII targeted Locked Nucleic Acids under 3D (B-C), but not 2D (E-F) growth conditions. Error bars represent standard deviation. P-value was calculated using student's two tailed t-test. *represents P<0.05, **represents P<0.01.
(§2) Cells were transfected with LNAs either targeting HSATII or with non-specific control Locked Nucleic Acids at 500 nM concentrations using Lipofectamine 2000 according to manufacturer recommended conditions. Cells were trypsinized 24 hours after transfection and seeded at concentration of 1000 cells per well in 96 well plates either in 2 dimensional or 3 dimensional culture conditions. For 2D conditions, the cells were transferred to cell culture treated 96 well plates and grown in RPMI+10% FBS. For 3D conditions, cells were grown in (RPMI+10% FBS+) in ultra-low attachment 96 well plates.
(§3) Stable cell lines carrying either one of two shRNAs targeting TP53, or a non-target shRNA using lentiviral infection, were generated.

[2] = test system: DLD1; test: Cell viability in 3D non-adherent and 2D adherent culture, DLD1
Procedure: (§4) FIGS. 14A-D. Effect of Locked Nucleic Acids targeting HSATII on TP53 mutant Colorectal Cancer cell lines. […] Error bars represent standard deviation. P-value was calculated using student's two tailed t-test. *represents P<0.05.
as §2

[3] = test system: COLO205 cells; test: Proliferation assay (CellTiter-Glo), COLO205
Procedure: FIG. 8. Proliferation assay of DMSO- or ddC-treated COLO205 (top) and HCT116 (bottom) cells. Cells were seeded at a density of 5×10^2 cells/well in a 96-well plate and quantified daily using CellTiter-Glo luminescent cell viability assay.
(§5) For proliferation assays, cells were seeded at a density of 5×10^2 cells/well in a 96-well plate (Corning) in presence of DMSO/ddC (100 μM) or one day after transfection with control/HSATII antisense oligonucleotides. Daily quantification was performed using CellTiter-Glo luminescent cell viability assay (Promega) with a SpectraMax M5 microplate reader (Molecular Devices).
50 nM ON-TARGETplus Non-targeting pool siRNA (Thermo Scientific) and Mission Pre-designed TERT siRNAs (Sigma Aldrich) or 500 nM Negative Control and HSATII LNA antisense oligonucleotides (Exiqon) were electroporated into COLO205 cells according to the Neon Transfection System (Invitrogen/Life Technology) instructions using the following conditions: 1600V; pulse width 10; 3 pulses. 500 nM Negative Control/HSATII LNA antisense oligonucleotides were transfected in HCT116 and SW620 cells using Lipofectamine 2000 (Invitrogen/Life Technologies) according to the manufacturer's instructions.

[4] = test system: HSATII-chr10 locus; test: qPCR analysis on HSATII-chr10 locus after DNase I or RNase A treatment of COLO205 extracts; settings: COLO205 cells, ddC 100 μM for two weeks vs DMSO
Description: FIGS. 3A-C. HSATII RNA-to-DNA conversion occurs through a reverse transcription mechanism. (A) qPCR analysis on HSATII-chr10 locus following DNAse I or RNase A treatment and reverse transcription of extracts obtained from COLO205 cells treated with DMSO or 2′, 3′-dideoxycytidine (ddC). (B) RIP lysates prepared from SW620 2D cultures or xenografts were immunoprecipitated with hTERT or IgG antibody, reverse transcribed and validated by qPCR for HSATII and TERC RNA enrichment. (C) qPCR analysis on HSATII-chr10 locus in COLO205 extracts 72 h after non-targeting (siNT) or TERT-targeting (siTERT) siRNA transfection. For all charts, values represent average of at least three independent experiments ±SEM. *P<0.05 (Student's t test).
All colon cancer cell lines were cultured in RPMI-1640+10% FBS+1% Pen/Strep (Gibco/Life Technologies). DMEM with the same supplements was used for 293T cells. For drug treatment, cells were cultured in presence of either DMSO or 100 μM 2′, 3′-dideoxycytidine (ddC, Sigma) for two weeks. […]
RNA was reverse transcribed using a SuperScript III First-Strand Synthesis kit (Invitrogen/Life Technologies) and cDNA was analyzed by qPCR using either Power SYBR-Green PCR Maser Mix or TaqMan Universal Master Mix on an ABI/PRISM 7500 platform (all reagents were from Applied Biosystems/Life Technologies). […]

[5] = test system: HCT116; test: Cell growth in 3D and 2D culture, HCT116 (with or without shRNA TP53 knockdown); settings: for susceptibility to ddC: HCT116 with shRNA TP53 knockdown
Procedure: as §1
FIGS. 19A-F. HCT116 cells are resistant to HSATII targeting and Reverse Transcriptase inhibition. […] Error bars represent standard deviation. P-value was calculated using student's two tailed t-test.
as §2, §3

[6] = test system: HCT116 cells; test: Proliferation assay (CellTiter-Glo), HCT116; settings: cells without endogenous HSATII expression, adherent growth, ddC 100 μM vs DMSO
Procedure: as §5, with “FIG. 8. Proliferation assay of DMSO- or ddC-treated COLO205 (top) and HCT116 (bottom) cells. Cells were seeded at a density of 5×10^2 cells/well in a 96-well plate and quantified daily using CellTiter-Glo luminescent cell viability assay. For” for “For”, “control/[…]” for “control/HSATII”

[7] = test system: SW620; test: Cell viability in 3D non-adherent and 2D adherent culture, SW620; settings: SW620, non-adherent conditions, Nec-1 10 μM
Procedure: as §4, §2

In the case of `Nc1ccn([C@H]2CC[C@@H](CO)O2)c(=O)n1` [ddC, 2′, 3′-dideoxycytidine], the “sensitivity to ddC” value ([1]; HCT8, 2D growth conditions) is reported as “resistant”, the “sensitivity to ddC” value ([1]; HCT8, 3D growth conditions) is reported as “resistant” and the growth inhibition ([1]; HCT8 with shRNA TP53 knockdown, 3D culture, ddC) is reported as “significant growth inhibition”. The growth inhibition ([2]; DLD1, 3 dimensional culture, ddC 5 μM) was “significant growth inhibition”, the cell proliferation ([3]; COLO205, ddC 100 μM vs DMSO) was “suppressed” and the “HSATII RNA species” value [4] was “increasing”. The “levels of endogenous HSATII rdDNA” value [4] was “reduced”, the “sensitivity to ddC” value ([5]; HCT116, 2D growth conditions) was “resistant” and the “sensitivity to ddC” value ([5]; HCT116, 3D growth conditions) was “resistant”. The “susceptibility to ddC” value ([5]; 2D culture) was “resistance”, the “susceptibility to ddC” value ([5]; 3D culture) was “resistance” and the cell proliferation [6] was “no effect”.

“SEQ ID NO:24: Locked nucleic acids (LNA) probes commercially purchased from Exiqon (GATTCCATTCGATGAT) specifically targeting HSATII (LNA-modified, pattern not given here)” was tested, and the cell proliferation ([3]; COLO205, 500 nM LNA antisense oligonucleotide vs negative control, five days) was “affected”.

For `CN1C(=O)C(Cc2c[nH]c3ccccc23)NC1=S` (stereo not drawn) [Nec-1, Necrostatin-1], the “rescue of HSATII LNA-induced growth inhibition” value ([2]; DLD1, non-adherent conditions, Nec-1 10 μM) was “rescued” and the “rescue of HSATII LNA-induced growth inhibition” value [7] was “rescued”.
